Source: ChEMBL document CHEMBL4742393, “Compounds for treatment of hypoproliferative disorders” (2019)
Activity calls are given as the source filed them. The calls are words filed in the database; no cut-off is given here.

Experiments:
[1] = system: Mus musculus; assay: Induction of rescue of anemia in RPS19-deficient mouse model for DBA assessed as improvement in erythrocytes production at 10 mg/kg, po dosed every 12 hrs for 5 times and measured 48 hrs after last dose; type: functional, organism-based; conditions: time 108.0 hrs
[2] = Rescue of cell survival defect in RPS19-deficient erythroid progenitor cells isolated from mouse model of DBA assessed as live cell levels at 5 uM by 7-AAD dye based FACS analysis (reference value: 31%); type: functional
[3] = Rescue of cell survival defect in RPS19-deficient erythroid progenitor cells isolated from mouse model of DBA assessed as c-kit+ progenitor cell levels at 5 uM by 7-AAD dye based FACS analysis (reference value: 38%); type: functional
[4] = biological target: T1, CDK8/CDK19 (Mus musculus) (UniProt Q8R3L8+Q8BWD8); assay: Inhibition of CDK8/CDK19 assessed as rescue of proliferation of RPS19-deficient erythroid progenitor cells isolated from mouse model of DBA by cell-based phenotypic screening assay relative to control; type: tissue-based
T1 sequence (Q8BWD8 whole entry, looked up, canonical isoform): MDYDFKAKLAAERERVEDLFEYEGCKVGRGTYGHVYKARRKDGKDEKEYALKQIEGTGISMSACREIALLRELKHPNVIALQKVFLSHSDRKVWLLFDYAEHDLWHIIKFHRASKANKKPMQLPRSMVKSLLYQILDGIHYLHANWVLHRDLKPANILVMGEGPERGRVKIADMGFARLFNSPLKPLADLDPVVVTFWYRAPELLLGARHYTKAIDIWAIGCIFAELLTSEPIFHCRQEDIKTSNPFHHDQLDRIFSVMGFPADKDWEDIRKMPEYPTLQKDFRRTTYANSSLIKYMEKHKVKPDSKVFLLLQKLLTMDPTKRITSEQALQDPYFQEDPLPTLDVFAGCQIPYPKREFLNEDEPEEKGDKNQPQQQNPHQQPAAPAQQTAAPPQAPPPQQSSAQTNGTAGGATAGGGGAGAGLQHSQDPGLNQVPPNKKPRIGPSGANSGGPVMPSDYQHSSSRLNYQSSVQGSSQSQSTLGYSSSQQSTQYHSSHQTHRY
T1 sequence (Q8R3L8 whole entry, looked up, canonical isoform): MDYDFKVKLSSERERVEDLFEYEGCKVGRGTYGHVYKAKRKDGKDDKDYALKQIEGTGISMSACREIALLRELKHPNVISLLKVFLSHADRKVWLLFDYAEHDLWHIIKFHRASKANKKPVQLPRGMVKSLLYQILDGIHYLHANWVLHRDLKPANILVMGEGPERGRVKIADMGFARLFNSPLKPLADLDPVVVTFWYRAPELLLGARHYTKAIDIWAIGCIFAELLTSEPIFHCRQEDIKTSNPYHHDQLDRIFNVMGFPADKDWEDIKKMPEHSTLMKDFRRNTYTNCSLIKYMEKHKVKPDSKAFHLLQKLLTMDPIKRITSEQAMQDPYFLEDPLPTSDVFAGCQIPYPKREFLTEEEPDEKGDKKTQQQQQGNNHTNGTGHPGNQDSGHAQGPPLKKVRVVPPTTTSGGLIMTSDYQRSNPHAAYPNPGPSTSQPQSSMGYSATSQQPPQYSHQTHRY

[5] = biological target: Casein kinase I isoform gamma-3 (Homo sapiens) (UniProt Q9Y6M4); assay: Inhibition of CSNK1G3 (unknown origin) assessed as residual ligand binding level at 10000 nM relative to control
[6] = biological target: Homeodomain-interacting protein kinase 1 (Homo sapiens) (UniProt Q86Z02); assay: Inhibition of HIPK1 (unknown origin) assessed as residual ligand binding level at 10000 nM relative to control
[7] = biological target: Dual specificity tyrosine-phosphorylation-regulated kinase 2 (Homo sapiens) (UniProt Q92630); assay: Inhibition of DYRK2 (unknown origin) assessed as residual ligand binding level at 10000 nM relative to control
Sequence of Dual specificity tyrosine-phosphorylation-regulated kinase 2 (Homo sapiens) (Q92630 whole entry, canonical isoform): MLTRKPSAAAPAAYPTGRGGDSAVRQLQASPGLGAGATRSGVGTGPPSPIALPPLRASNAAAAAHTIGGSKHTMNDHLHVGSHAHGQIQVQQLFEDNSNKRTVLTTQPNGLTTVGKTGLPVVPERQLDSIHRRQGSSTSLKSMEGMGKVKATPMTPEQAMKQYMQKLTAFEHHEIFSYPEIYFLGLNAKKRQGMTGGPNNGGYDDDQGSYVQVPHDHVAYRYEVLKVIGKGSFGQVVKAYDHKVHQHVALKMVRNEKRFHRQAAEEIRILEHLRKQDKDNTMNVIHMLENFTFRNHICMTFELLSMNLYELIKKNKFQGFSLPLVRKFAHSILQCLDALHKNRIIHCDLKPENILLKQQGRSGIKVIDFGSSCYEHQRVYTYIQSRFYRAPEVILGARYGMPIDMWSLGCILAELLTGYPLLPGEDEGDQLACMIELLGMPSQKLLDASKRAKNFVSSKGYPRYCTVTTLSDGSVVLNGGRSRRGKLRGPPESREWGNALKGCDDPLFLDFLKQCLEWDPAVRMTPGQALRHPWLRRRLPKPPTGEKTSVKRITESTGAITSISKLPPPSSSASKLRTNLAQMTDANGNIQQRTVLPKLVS

[8] = biological target: Casein kinase I isoform delta (Homo sapiens) (UniProt P48730); assay: Inhibition of CSNK1D (unknown origin) assessed as residual ligand binding level at 10000 nM relative to control
Sequence of Casein kinase I isoform delta (Homo sapiens) (P48730 whole entry, looked up, canonical isoform): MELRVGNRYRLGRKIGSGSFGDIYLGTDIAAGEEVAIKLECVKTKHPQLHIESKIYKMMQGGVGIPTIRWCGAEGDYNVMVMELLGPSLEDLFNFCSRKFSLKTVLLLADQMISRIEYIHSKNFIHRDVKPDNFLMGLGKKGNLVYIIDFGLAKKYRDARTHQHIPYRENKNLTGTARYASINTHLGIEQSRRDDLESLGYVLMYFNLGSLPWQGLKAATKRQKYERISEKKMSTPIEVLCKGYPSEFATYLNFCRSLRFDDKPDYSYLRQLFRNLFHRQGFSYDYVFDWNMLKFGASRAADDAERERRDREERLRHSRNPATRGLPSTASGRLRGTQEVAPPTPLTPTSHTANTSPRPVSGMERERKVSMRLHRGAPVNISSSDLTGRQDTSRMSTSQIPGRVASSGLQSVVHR

[9] = biological target: Dual specificity tyrosine-phosphorylation-regulated kinase 1B (Homo sapiens) (UniProt Q9Y463); assay: Inhibition of DYRK1B (unknown origin) assessed as residual ligand binding level at 10000 nM relative to control
Sequence of Dual specificity tyrosine-phosphorylation-regulated kinase 1B (Homo sapiens) (Q9Y463 whole entry, looked up): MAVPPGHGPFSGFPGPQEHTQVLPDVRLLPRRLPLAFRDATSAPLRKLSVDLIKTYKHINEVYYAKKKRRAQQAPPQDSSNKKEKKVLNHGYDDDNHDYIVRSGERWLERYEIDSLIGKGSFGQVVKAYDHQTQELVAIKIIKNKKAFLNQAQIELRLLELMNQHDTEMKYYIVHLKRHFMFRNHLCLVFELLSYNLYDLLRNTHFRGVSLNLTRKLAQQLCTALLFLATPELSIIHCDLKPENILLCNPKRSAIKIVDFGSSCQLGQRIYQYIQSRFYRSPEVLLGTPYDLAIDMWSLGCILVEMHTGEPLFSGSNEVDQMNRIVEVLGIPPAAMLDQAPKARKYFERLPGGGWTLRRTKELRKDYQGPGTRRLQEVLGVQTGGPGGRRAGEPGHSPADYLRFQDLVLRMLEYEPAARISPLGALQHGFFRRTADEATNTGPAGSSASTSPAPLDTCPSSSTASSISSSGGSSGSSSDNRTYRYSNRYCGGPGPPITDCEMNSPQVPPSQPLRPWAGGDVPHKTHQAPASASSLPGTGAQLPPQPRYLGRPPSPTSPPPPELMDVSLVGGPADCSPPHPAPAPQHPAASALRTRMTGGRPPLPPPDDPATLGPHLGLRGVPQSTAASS

[10] = biological target: Serine/threonine-protein kinase pim-1 (Homo sapiens) (UniProt P11309); assay: Inhibition of PIM1 (unknown origin) assessed as residual ligand binding level at 10000 nM relative to control
Sequence of Serine/threonine-protein kinase pim-1 (Homo sapiens) (P11309 whole entry, looked up, the tested form may be a part): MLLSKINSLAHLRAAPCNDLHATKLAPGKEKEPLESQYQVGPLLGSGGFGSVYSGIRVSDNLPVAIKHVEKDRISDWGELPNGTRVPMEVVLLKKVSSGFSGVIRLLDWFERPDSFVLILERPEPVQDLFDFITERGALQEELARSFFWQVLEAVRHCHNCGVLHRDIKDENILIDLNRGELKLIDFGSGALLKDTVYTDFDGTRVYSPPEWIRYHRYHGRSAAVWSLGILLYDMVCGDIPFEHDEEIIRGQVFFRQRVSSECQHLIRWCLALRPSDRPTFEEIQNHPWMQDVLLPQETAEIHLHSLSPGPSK

[11] = biological target: Ribosomal protein S6 kinase alpha-6 (Homo sapiens) (UniProt Q9UK32); assay: Inhibition of RSK4 c-terminal kinase domain (unknown origin) assessed as residual ligand binding level at 10000 nM relative to control
Sequence of Ribosomal protein S6 kinase alpha-6 (Homo sapiens) (Q9UK32 whole entry, the tested form may be a part): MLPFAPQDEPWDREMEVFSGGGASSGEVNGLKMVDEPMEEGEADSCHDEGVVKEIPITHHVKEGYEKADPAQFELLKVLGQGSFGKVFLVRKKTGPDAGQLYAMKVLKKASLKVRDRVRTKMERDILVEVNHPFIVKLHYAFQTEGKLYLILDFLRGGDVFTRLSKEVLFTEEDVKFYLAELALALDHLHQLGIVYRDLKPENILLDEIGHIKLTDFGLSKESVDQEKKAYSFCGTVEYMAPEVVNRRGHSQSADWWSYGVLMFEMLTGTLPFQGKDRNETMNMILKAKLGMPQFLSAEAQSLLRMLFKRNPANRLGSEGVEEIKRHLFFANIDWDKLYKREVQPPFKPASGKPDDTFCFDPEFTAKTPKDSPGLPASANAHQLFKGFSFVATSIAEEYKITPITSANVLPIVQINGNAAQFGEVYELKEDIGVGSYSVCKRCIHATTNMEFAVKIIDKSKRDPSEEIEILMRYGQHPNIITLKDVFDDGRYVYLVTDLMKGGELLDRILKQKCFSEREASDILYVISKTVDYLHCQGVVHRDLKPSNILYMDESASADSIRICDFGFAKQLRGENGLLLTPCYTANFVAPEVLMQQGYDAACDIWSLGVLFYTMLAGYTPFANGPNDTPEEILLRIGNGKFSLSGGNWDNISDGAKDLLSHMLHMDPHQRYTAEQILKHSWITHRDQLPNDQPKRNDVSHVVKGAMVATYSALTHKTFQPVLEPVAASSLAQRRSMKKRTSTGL

[12] = biological target: Death-associated protein kinase 1 (Homo sapiens) (UniProt P53355); assay: Inhibition of DAPK1 (unknown origin) assessed as residual ligand binding level at 10000 nM relative to control
[13] = biological target: TGF-beta receptor type-1 (Homo sapiens) (UniProt P36897); assay: Inhibition of TGFBR1 (unknown origin) assessed as residual ligand binding level at 10000 nM relative to control
[14] = biological target: Casein kinase I isoform epsilon (Homo sapiens) (UniProt P49674); assay: Inhibition of CSNK1E (unknown origin) assessed as residual ligand binding level at 10000 nM relative to control
Sequence of Casein kinase I isoform epsilon (Homo sapiens) (P49674 whole entry, looked up, canonical isoform): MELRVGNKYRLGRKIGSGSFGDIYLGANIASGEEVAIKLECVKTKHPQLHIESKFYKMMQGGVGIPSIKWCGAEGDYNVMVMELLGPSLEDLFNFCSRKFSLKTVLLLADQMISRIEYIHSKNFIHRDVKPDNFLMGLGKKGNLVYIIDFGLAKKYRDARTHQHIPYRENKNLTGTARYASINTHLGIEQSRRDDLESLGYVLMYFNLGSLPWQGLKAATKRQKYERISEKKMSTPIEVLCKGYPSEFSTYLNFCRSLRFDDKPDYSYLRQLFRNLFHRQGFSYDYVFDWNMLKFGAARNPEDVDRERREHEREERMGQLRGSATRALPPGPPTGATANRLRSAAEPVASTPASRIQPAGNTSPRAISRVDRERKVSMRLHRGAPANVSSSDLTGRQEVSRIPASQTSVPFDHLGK

[15] = biological target: Cyclin-dependent kinase 19 (Homo sapiens) (UniProt Q9BWU1); assay: Inhibition of CDK19(CDK11) (unknown origin) assessed as residual ligand binding level at 10000 nM relative to control
[16] = biological target: Casein kinase I isoform gamma-1 (Homo sapiens) (UniProt Q9HCP0); assay: Inhibition of CSNK1G1 (unknown origin) assessed as residual ligand binding level at 10000 nM relative to control
Sequence of Casein kinase I isoform gamma-1 (Homo sapiens) (Q9HCP0 whole entry, looked up, canonical isoform): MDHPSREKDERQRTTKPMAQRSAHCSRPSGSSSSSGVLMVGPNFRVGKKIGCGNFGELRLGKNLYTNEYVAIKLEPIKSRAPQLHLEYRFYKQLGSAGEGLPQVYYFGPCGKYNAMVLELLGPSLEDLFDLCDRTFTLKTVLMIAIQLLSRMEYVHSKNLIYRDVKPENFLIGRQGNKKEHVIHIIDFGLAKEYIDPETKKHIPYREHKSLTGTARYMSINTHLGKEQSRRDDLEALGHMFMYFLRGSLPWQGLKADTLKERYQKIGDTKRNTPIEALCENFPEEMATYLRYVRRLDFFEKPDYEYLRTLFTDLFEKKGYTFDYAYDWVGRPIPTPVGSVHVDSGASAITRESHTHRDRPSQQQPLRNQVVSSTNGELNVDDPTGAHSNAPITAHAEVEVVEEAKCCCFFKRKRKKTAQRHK

[17] = biological target: Casein kinase I isoform gamma-2 (Homo sapiens) (UniProt P78368); assay: Inhibition of CSNK1G2 (unknown origin) assessed as residual ligand binding level at 10000 nM relative to control
[18] = biological target: Mitogen-activated protein kinase 14 (Homo sapiens) (UniProt Q16539); assay: Inhibition of p38-alpha (unknown origin) assessed as residual ligand binding level at 10000 nM relative to control
Sequence of Mitogen-activated protein kinase 14 (Homo sapiens) (Q16539 whole entry, canonical isoform): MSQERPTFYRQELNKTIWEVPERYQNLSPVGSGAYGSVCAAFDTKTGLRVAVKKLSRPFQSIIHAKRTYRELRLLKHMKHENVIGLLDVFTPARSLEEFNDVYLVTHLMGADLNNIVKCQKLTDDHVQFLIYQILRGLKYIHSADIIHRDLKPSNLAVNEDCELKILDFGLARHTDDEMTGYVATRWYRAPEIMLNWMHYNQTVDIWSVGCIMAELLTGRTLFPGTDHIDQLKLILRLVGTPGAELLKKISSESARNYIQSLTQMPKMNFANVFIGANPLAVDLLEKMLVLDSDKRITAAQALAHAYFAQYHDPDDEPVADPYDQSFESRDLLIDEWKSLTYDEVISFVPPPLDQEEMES

[19] = biological target: Casein kinase I isoform alpha-like (Homo sapiens) (UniProt Q8N752); assay: Inhibition of CSNK1A1L (unknown origin) assessed as residual ligand binding level at 10000 nM relative to control
[20] = biological target: Dual specificity tyrosine-phosphorylation-regulated kinase 1A (Homo sapiens) (UniProt Q13627); assay: Inhibition of DYRK1A (unknown origin) assessed as residual ligand binding level at 10000 nM relative to control
[21] = species on record: Homo sapiens; assay: Inhibition of GCN2 kinase domain 2 […] mutant (unknown origin) assessed as residual ligand binding level at 10000 nM relative to control
[22] = biological target: Casein kinase I isoform alpha (Homo sapiens) (UniProt P48729); assay: Inhibition of CSNK1A1 (unknown origin) assessed as residual ligand binding level at 10000 nM relative to control
[23] = biological target: T1, CDK8/CDK19 (Mus musculus); assay: Inhibition of CDK8/CDK19 assessed as rescue of proliferation of RPS19-deficient mouse erythroid progenitor cells by cell-based phenotypic screening assay; type: tissue-based
[24] = system: CD34-positive (myeloid/lymphoid) cell; assay: Rescue of proliferation of CD34+ erythroid progenitor cells isolated from DBA patient with RPS19 mutation at 200 nM measured at day 14 of culture; type: functional, tissue-based; conditions: Homo sapiens, time 14.0 day
[25] = system: Erythroid progenitor cell; assay: Increase in erythroid maturation of erythroid progenitor cells isolated from DBA patient assessed as increase in CD71 and CD235a positive cells level measured at day 8 of culture by flow cytometry; type: functional, tissue-based; conditions: Homo sapiens
[26] = Rescue of cell survival defect in RPS19-deficient erythroid progenitor cells isolated from mouse model of DBA assessed as c-kit+ progenitor cell levels at 0.03 uM by 7-AAD dye based FACS analysis (reference value: 38%); type: functional
[27] = system: Erythroid progenitor cell; assay: Rescue of proliferation of CD34+ erythroid progenitor cells isolated from DBA patient with […] mutation at 200 nM measured at day 14 of culture; type: functional, tissue-based; conditions: Homo sapiens, time 14.0 day
[28] = system: CD34-positive (myeloid/lymphoid) cell; assay: Rescue of proliferation of CD34+ erythroid progenitor cells isolated from DBA patient with RPS26 mutation at 200 nM measured at day 14 of culture; type: functional, tissue-based; conditions: Homo sapiens, time 14.0 day
[29] = Rescue of cell survival defect in RPS19-deficient erythroid progenitor cells isolated from mouse model of DBA assessed as live cell levels at 0.03 uM by 7-AAD dye based FACS analysis (reference value: 31%); type: functional

In the case of N#Cc1ccc2ncnc(NCCc3ccccc3)c2c1, the Activity [1] is reported as “Active”, the Activity [2] is reported as 77% and the Activity [3] is reported as 65%.
For Cn1ncc2cc(-c3cnc(N)c(Cl)c3N3CCC4(CCNC4=O)CC3)ccc21, the ECmax [4] was “inactive” and the Activity [1] was “Active”.
In the case of COCc1cc(C)nc2sc(C(N)=O)c(N)c12, the Activity [5] is reported as 67%, the Activity [6] is reported as 61% and the Activity [7] is reported as 46%. It also gave an Activity [8] of 10%, an Activity [9] of 41% and an Activity [10] of 87%. The Activity [11] was 72%, the Activity [1] was “Active” and the Activity [12] was 84%. For the same molecule, the Activity [13] was 95%, the Activity [14] was 14% and the Activity [15] was 0%. The Activity [16] was 84%, the Activity [17] was 73% and the Activity [18] was 88%. The Activity [19] was 25%, the Activity [20] was 50% and the Activity [21] was 94%. It also gave an Activity [22] of 11%.
For Cc1c(C(N)=O)sc2nc(C(F)(F)F)cc(N)c12, the Activity [1] was “Active”.
In the case of COc1ccc(-c2cc(C3CC3)nc3sc(C(N)=O)c(N)c23)cc1, the Activity [1] is reported as “Active”.
In the case of NC(=O)c1sc2nccc(N3CCCN(c4ccccc4)CC3)c2c1N, the Activity [1] is reported as “Active” and the inhibition [23] is reported as “Dose-dependent effect”.
With CCc1nc2sc(C(N)=O)c(N)c2c2c1CCCC2 the Activity [1] was “Active”.
In the case of Cn1cc(-c2ccc(-c3cncc(Cl)c3N3CCC4(CCNC4=O)CC3)cc2)cn1, the Activity [1] is reported as “Active”.
With CN(C)c1ccnc2sc(C(N)=O)c(N)c12 the Activity [1] was “Active” and the inhibition [23] was “Dose-dependent effect”.
With CN(C)C(=O)Cc1ccc(N2CCCN(c3ccnc4sc(C(N)=O)c(N)c34)CC2)cc1 the Activity [24] was “Active”, the Activity [25] was “Active” and the Activity [1] was “Active”. The inhibition [23] was “Dose-dependent effect”, the Activity [26] was 63% and the Activity [27] was “Active”. The Activity [28] was “Active” and the Activity [29] was 70%.
For CN1CCN(C(=O)c2ccc3cc(CCNc4ncnc5ccc(C#N)cc45)ccc3c2)CC1, the Activity [24] was “Active”, the Activity [25] was “Active” and the Activity [1] was “Active”. For the same molecule, the Activity [27] was “Active” and the Activity [28] was “Active”.
With Cc1c(Br)c(Br)c2c3c1nc(N1CCNCC1)n3CCC2 the Activity [24] was “Active”, the Activity [25] was “Active” and the Activity [1] was “Active”. The Activity [27] was “Active” and the Activity [28] was “Active”.
